Measured values: PMC5522996, “Big conductance calcium‐activated potassium channel openers control spasticity without sedation” (British Journal of Pharmacology, 2017)

Key:
[1] = tested on: healthy volunteers; assay: Phase I safety study, adverse events; type: in vivo, human
[2] = Phase I pharmacokinetics in healthy humans; type: in vivo, human
Experimental: The stability of compounds when subjected to hepatic and plasma degradation was assessed in vitro by Inpharmatica, Cambridge, UK. Compounds (1 μM) were incubated with either pooled mouse liver microsomes (0.1 mg protein mL^−1) or pooled mouse plasma at 37°C for 0, 5, 10, 20 and 40 min before termination with acetonitrile containing warfarin as an analytical internal standard. Samples were centrifuged, and the resultant supernatant analysed for parent compound. The mass responses at baseline were taken as the 100% reference values against which the disappearance of the compound was measured. The natural log of the % remaining values was used to generate linear plots of disappearance of the compounds. Half‐life values were calculated from the slope of these plots. Hepatocyte metabolism was assessed by Cyprotex, Macclesfield, and 10 μM VSN16R was incubated with primary mouse, rat, monkey (Macaque) and human hepatocytes for 1 h, and the presence of metabolites was assessed using liquid […] mass spectroscopy. The stability of VSN16R was assessed in vivo by Inpharmatica, Cyprotex and Charles Rivers, Cambridge. Blood (plasma) samples were obtained prior to and 5 min to 24 h after drug administration of 2–5 mg·kg^−1 i.v. or 5 mg·kg^−1 p.o. VSN16R into outbred mice and rats (n = 3 per time point). In addition, plasma, brain and spinal cord samples were obtained from ABH with spastic EAE. Immediately after blood collection, the brain and spinal cord were removed and then stored at −20°C prior to assay. Tissue samples were weighed, homogenized and centrifuged, and the lysates generated. Brain lysates and plasma were assayed by LC–MS methods by Inpharmatica/Charles Rivers, Cambridge, UK. This was also performed using a Waters Xevo TQ or API4000, AB Sciex mass spectrometer using spiked samples as standards. PK Solutions Software (Summit Research Services, Montrose, CO, USA), AB Sciex Analyst software combined with Thermo Fisher Scientific Watson LIMS processing and reporting software or WinNonLin pharmacokinetic or PK solutions 2.0 software (Summit Research Services, Montrose CO, USA) were used to produce PK parameters. Data are expressed as mean ± SEM. The detection limit of VSN16R was 2 ng·mL^−1 in plasma and brain and 14 ng·mL^−1 in spinal cords.

[3] = tested on: mice; assay: Visible sedation, behaviour and tolerability in mice
[4] = 1 g·kg^−1 p.o. daily for 5 days

Q: For C[C@H](CO)NC(=O)c1cccc(/C=C\CCCC(=O)N(C)C)c1 [VSN16R], which “Vomiting or issues of taste” value ([1]; encapsulated drug, human studies) is on record?
A: no vomiting or issues of taste were reported

Q: And the Sedation in humans ([1]; in vivo)?
A: does not induce sedation

Q: What about the Serious adverse events ([1]; multiple ascending dose b.i.d.) of the same molecule?
A: no serious adverse events

Q: What about the “Subjects with a possible side effect of the treatment” value ([1]; multiple ascending dose b.i.d., 3/18 subjects) of the same molecule?
A: 16.7%

Q: What about the “Subjects reporting adverse events” value ([1]; multiple ascending dose b.i.d., 6/18 subjects) of the same molecule?
A: 33.3%

Q: And the “Serious adverse drug‐related events” value ([1]; single ascending dose)?
A: No serious adverse drug‐related events occurred

Q: And the Adverse events reported ([1]; single ascending dose 25–800 mg)?
A: 14.3%

Q: What about the “Subjects with a possible associated effect with treatment” value ([1]; single ascending dose, 5/42 subjects) of the same molecule?
A: 11.9%

Q: And the “Effect of feeding on pharmacokinetics” value ([2]; 200 mg p.o., fed within 0.5 h of dosing)?
A: delayed the time of the Cmax (Tmax) and reduced Cmax

Q: And the concentration at 1 week ([2]; male, human, plasma, oral, twice daily dosing of VSN16R, read-out: Steady‐state plasma levels)?
A: > 100 nM

Q: What about the bioavailability ([2]; male, human, plasma, po, 25 mg p.o.) of the same molecule?
A: 100%

Q: What about the Terminal elimination ([2]; over the dose range studied, 25–800 mg) of the same molecule?
A: 3.4 to 4.9 h

Q: And the “Overt behavioural effects or toxicity” value [3, 4]?
A: failed to show any overt behavioural effects or toxicity

Q: What about the Weight loss [3, 4] of the same molecule?
A: no drug‐induced weight loss

Q: What about the Tolerated dose ([3]; p.o., mice) of the same molecule?
A: 1000 mg/kg

Q: What about the “Visible evidence of sedation” value ([3]; up to 30 mg·kg^−1 i.v. in PBS) of the same molecule?
A: failed to show any visible evidence of sedation
